Legend:
peripheral blood cells = assay: Comet assay, peripheral blood cells; format: in vivo, rat
liver cells = assay: Comet assay, liver cells; format: in vivo, rat
[1] = 1-Month Study, 200 mg/kg/day Days 28-29, Day 29, positive control
[2] = 3-Day Study, 200 mg/kg/day Days 2-3, Day 3, positive control

SMILES: CCOS(C)(=O)=O [EMS, ethyl methanesulfonate]
- Blood % tail intensity mean ± SD (peripheral blood cells; [1]): 26.41 ± 4.85 %
- Blood % tail intensity mean ± SD (peripheral blood cells; [2]): 24.56 ± 1.94 %
- Liver % tail intensity mean ± SD (liver cells; [1]): 30.79 ± 10.66 %
- Liver % tail intensity mean ± SD (liver cells; [2]): 28.07 ± 1.64 %

Reference: article PMC7317746 (Environmental and Molecular Mutagenesis, 2020)
